Values after ≈ are worked out from the molar mass of the structure shown. Values joined by “and” are separate entries in the source; they are usually repeats but may differ in a detail not shown here. Identical values can stand only once. Like-named read-outs stand apart in the source and are kept apart here.
Columns and labels:
Mtb GuaB2 = target: T1, Mtb GuaB2 (Mycobacterium tuberculosis, UniProt P9WKI7); test: Biochemical assay of GuaB2 inhibition; conditions: duplicate, mean
T1 construct: made in house
Procedure: The Mtb ortholog of the enzyme was recombinantly expressed, purified and assayed as previously described. Inhibition was determined at 0.1 mM, using 12 μg GuaB2 with the addition of 0.5% CHAPS. Each assay was normalised for DMSO concentration. Data was recorded in duplicate and analysed using Graphpad Prism 6.0.

M. tuberculosis H37Rv = test: MIC against H37Rv; assay type: cell-based; conditions: Mycobacterium tuberculosis
Source text: Table 1 Z’ and pXC50 values for dose response validation of GuaB2 targeting compounds.

[1] = system: M. bovis BCG pMV261-guaB2; test: microbe, parasite or virus in culture; assay type: cell-based, Mycobacterium bovis BCG; conditions: for IC50: Mycobacterium tuberculosis variant bovis BCG, BCG, 168 h, 7 days, read-out: pXC50 Mean for GuaB2 (converted)
M. bovis BCG pMV261 = test: microbe, parasite or virus in culture; assay type: cell-based; conditions: Mycobacterium tuberculosis variant bovis BCG, 168 h, read-out: pXC50 for Empty Vector (converted)
[2] = 0.1 mM compound, 12 μg GuaB2, 0.5% CHAPS, read-out: % Biochemical Inhibition of Mtb GuaB2
[3] = 0.1 mM compound, 12 μg GuaB2, 0.5% CHAPS
[4] = read-out: % Biochemical Inhibition of Mtb GuaB2, 0.1 mM compound, 12 μg GuaB2, 0.5% CHAPS

T1 sequence (P9WKI7 whole entry, looked up): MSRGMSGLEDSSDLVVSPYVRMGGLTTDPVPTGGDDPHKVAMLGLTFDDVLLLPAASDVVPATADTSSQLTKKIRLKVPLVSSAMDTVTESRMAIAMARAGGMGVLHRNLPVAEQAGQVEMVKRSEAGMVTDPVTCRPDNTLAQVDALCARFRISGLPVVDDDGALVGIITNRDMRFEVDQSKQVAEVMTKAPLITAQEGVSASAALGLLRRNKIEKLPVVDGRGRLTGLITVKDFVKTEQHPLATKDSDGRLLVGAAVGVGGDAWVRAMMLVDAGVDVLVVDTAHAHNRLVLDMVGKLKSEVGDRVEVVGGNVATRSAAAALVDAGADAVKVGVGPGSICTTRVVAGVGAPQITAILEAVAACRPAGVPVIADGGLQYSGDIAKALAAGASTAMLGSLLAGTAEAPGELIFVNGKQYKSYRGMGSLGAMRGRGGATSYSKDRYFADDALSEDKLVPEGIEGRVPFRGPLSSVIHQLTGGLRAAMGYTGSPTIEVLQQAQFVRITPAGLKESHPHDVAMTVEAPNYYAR

Question: `Cc1ccc([N+](=O)[O-])cc1NC(=O)Nc1cccc(Cl)c1` [DPU-2, reference compound] was tested. Which inhibition at 100 µM (Mtb GuaB2; [2]) did it give?
Answer: 44.6%

Question: For `NNC(=O)c1ccncc1` [INH, isoniazid, reference compound], which “% Biochemical Inhibition of Mtb GuaB2” value (Mtb GuaB2; [3]) is on record?
Answer: −9% and −8.88%

Question: What does the source list for `CC(=O)Nc1ccc(-c2ccc3ncc(N4CCN(C)CC4)nc3c2)cn1` [JAGC_1, N-(5-(3-(4-methylpiperazin-1-yl)quinoxalin-6-yl)pyridin-2-yl)acetamide]?
Answer: MIC (M. tuberculosis H37Rv): > 80 µM; Shift pIC50 [1]: 1.05; IC50 [1]: ≥ 100 µM; IC50 (M. bovis BCG pMV261): 8.91 µM; inhibition at 100 µM (Mtb GuaB2; [2]): 23.1%

Question: With `CCOc1ccc(C(=O)Nc2cc(Cl)c3c(c2)CNCC3)cc1C(C)=O` [JAGC_2, 3-acetyl-N-(5-chloro-1,2,3,4-tetrahydroisoquinolin-7-yl)-4-ethoxybenzamide] as the compound, how does the MIC (M. tuberculosis H37Rv) read?
Answer: > 80 µM

Question: What about the “Shift pIC50” value [1] of the same compound?
Answer: 0.84

Question: And the IC50 [1]?
Answer: 57.5 µM

Question: And the IC50 (M. bovis BCG pMV261)?
Answer: 8.32 µM

Question: And the “% Biochemical Inhibition of Mtb GuaB2” value (Mtb GuaB2; [3])?
Answer: 26.53%

Question: What about the inhibition at 100 µM (Mtb GuaB2; [4]) of the same compound?
Answer: 26.5%

Question: With `COC(=O)c1c(NC(=O)N2CCNCC2)sc2c1CC(C)(C)OC2` [JAGC_3, methyl 5,5-dimethyl-2-(piperazine-1-carboxamido)-4,7-dihydro-5H-thieno[2,3-c]pyran-3-carboxylate] as the compound, how does the MIC (M. tuberculosis H37Rv) read?
Answer: > 80 µM

Question: What about the “Shift pIC50” value [1] of the same compound?
Answer: 0.99

Question: And the IC50 [1]?
Answer: ≥ 100 µM

Question: And the IC50 (M. bovis BCG pMV261)?
Answer: 10.2 µM

Question: What about the inhibition at 100 µM (Mtb GuaB2; [2]) of the same compound?
Answer: 21.8%

Question: With `COc1ccc(Cl)c2sc(N(CCN(C)C)C(C)=O)nc12` [JAGC_4, N-(7-chloro-4-methoxybenzo[d]thiazol-2-yl)-N-(2-(dimethylamino)ethyl)acetamide] as the compound, how does the MIC (M. tuberculosis H37Rv) read?
Answer: > 80 µM

Question: And the “Shift pIC50” value [1]?
Answer: 0.64

Question: What about the IC50 [1] of the same compound?
Answer: ≥ 100 µM

Question: And the IC50 (M. bovis BCG pMV261)?
Answer: 22.9 µM

Question: What about the inhibition at 100 µM (Mtb GuaB2; [2]) of the same compound?
Answer: 20.7%

Question: Which results are given for `CC(C)CCN(c1ccc(C#N)c(Cl)c1)[C@H]1CCNC1` [JAGC_5, (S)-2-chloro-4-(isopentyl(pyrrolidin-3-yl)amino)benzonitrile]?
Answer: MIC (M. tuberculosis H37Rv): > 100 µM; Shift pIC50 [1]: 0.94; IC50 [1]: 38 µM; IC50 (M. bovis BCG pMV261): 4.37 µM; inhibition at 100 µM (Mtb GuaB2; [2]): 20.6%

Question: What does the source list for `Clc1cc2ccccc2c(N2CCNCC2)n1` [JAGC_6, 3-chloro-1-(piperazin-1-yl)isoquinoline]?
Answer: MIC (M. tuberculosis H37Rv): > 80 µM; Shift pIC50 [1]: 1.07; IC50 [1]: 44.7 µM; IC50 (M. bovis BCG pMV261): 3.8 µM; % Biochemical Inhibition of Mtb GuaB2 (Mtb GuaB2; [3]): 15.44%; inhibition at 100 µM (Mtb GuaB2; [4]): 12.3%

Question: For `CC1CCC(NC(=O)Nc2ccc3snnc3c2)CC1` (stereo not drawn) [JAGC_7, 1-(benzo[d][1,2,3]thiadiazol-5-yl)-3-(4-methylcyclohexyl)urea], which MIC (M. tuberculosis H37Rv) is on record?
Answer: 50 µM (≈ 14.5 µg/mL)

Question: And the “Shift pIC50” value [1]?
Answer: 0.37

Question: What about the IC50 [1] of the same compound?
Answer: 9.77 µM

Question: And the IC50 (M. bovis BCG pMV261)?
Answer: 4.17 µM

Question: And the inhibition at 100 µM (Mtb GuaB2; [2])?
Answer: 12.2%

From PMC5159837, “Novel inhibitors of Mycobacterium tuberculosis GuaB2 identified by a target based high-throughput phenotypic screen” (Scientific Reports, 2016)
